In paper PMC3013143 (PLoS ONE, 2010):
No end group written: not given here.

Legend:
human serum = details: 37°C, up to 2 h
[1] = target: T1, recombinant extracellular domain of human CAIX (Homo sapiens, UniProt Q16790); experiment: Binding of 125I-labeled CaIX-P1 on immobilized recombinant extracellular domain of CAIX; details: co-incubation of ^125I-CaIX-P1 with unlabeled CaIX-P1 at 10^−4 M, p<0.05, n = 3; read-out: Binding inhibition of the radioligand
T1 construct: Fc (Fc gamma, from pSEC-EGP-2-Fcγ vector) (C); made in house; host or cells: Flp-In-293 human embryonic kidney cells (secreted into medium)
Description: Binding of ^125I-labeled CaIX-P1 was performed on immobilized recombinant extracellular domain of human CAIX and of EGFR. For immobilization the target proteins CAIX and EGFR were incubated at a concentration of 50 nM in 24-well plates for 24 h. Thereafter, the plates were washed three times with 500 µl PBS pH 7.4. Incubation with ^125I-CaIX-P1 was performed in 500 µl PBS pH 7.4 for 30 min. After incubation the plates were washed three times with 500 µl ice cold PBS pH 7.4. The target proteins were degraded with 500 µl NaOH 0.3 mol/L and the radioactivity was counted with a γ-counter. Bound radioactivity was calculated as percentage applied dose. In order to evaluate the specificity of the radioligand binding, competition experiments with the unlabeled CaIX-P1 peptide at a concentration of 10^−4 M were carried out.

[2] = test system: CAIX positive SKRC 52 cells; type: cell-based, human; details: 24 h
Description: For binding experiments 3×10^5 CAIX positive SKRC 52 cells were seeded into 6-well plates and cultivated in 3 mL of incubation medium at 37°C for 24 h. After cell blocking with RPMI 1640 (without FCS) containing 1% BSA, the medium was replaced with 1 mL of fresh medium (without FCS) containing 0.5–1.5×10^6 cpm of ^125I-labeled peptide and incubation was performed for time periods varying from 10 min to 6 h at 37°C. To determine specific versus nonspecific binding, the cells were incubated with the unlabeled CaIX-P1 peptide at concentrations varying from 10^−4 to 10^−10 mol/L. Octreotide was used as negative control competitor. After incubation the medium was removed and the cells were washed three times with 1 mL ice cold PBS in order to remove the unbound radiolabeled peptide. Subsequently, the cells were lysed with 0.5 mL NaOH 0.3 mol/L and the radioactivity was measured with a γ-counter. Bound radioactivity was calculated as percentage applied dose per 10^6 cells. Binding experiments were also performed on HCT 116 cells and on human umbilical vein endothelial cells (HUVEC) at various cell densities. CAIX negative CaKi-2 cells were used as negative control.

Stability in human serum = type: in vitro ADME; details: 37°C
Description: The stability of CaIX-P1 was investigated in human serum. The peptide was incubated at 37°C in human serum at a concentration of 10^−4 mol/L. At time points varying from 5 min to 2 h aliquots were taken, mixed with equal volume acetonitrile to precipitate serum proteins and centrifuged for 5 min at 13,000 rpm. The supernatant was analyzed with HPLC on a Chromolith Performance RP-18e 100×4.6 mm column (Merck) using a linear gradient of water and acetonitrile containing 0.1% trifluoroacetic acid. Samples of CaIX-P1 and its fragments in human serum were isolated and analyzed by MALDI-TOF mass spectrometry.

YNTNHVPLSPKY
cleaved bond (human serum): tyrosine1-N2, major, 10 min

YNTNHVPLSPKY [CaIX-P1]
inhibition at 100 µM [1]: 93% | IC50 [2]: 1750 ± 490 nM | Main product of serum degradation (Stability in human serum; 10^−4 mol/L, appeared after 10 min, HPLC isolation and MALDI-TOF mass spectrometry): lacking the N-terminal tyrosine | half-life (Stability in human serum; peptide 10^−4 mol/L, aliquots 5 min to 2 h, acetonitrile precipitation, HPLC): ~25 min
